Experimental data: ChEMBL document CHEMBL3779840, “Discovery of 2-((3-Amino-4-methylphenyl)amino)-N-(2-methyl-5-(3-(trifluoromethyl)benzamido)phenyl)-4-(methylamino)pyrimidine-5-carboxamide (CHMFL-ABL-053) as a Potent, Selective, and Orally Available BCR-ABL/SRC/p38 Kinase Inhibitor for Chronic Myeloid Leukemia” (J Med Chem, 2016)

What was measured:
[1] = tested on: BaF3; conditions: Homo sapiens
Description: Inhibition of BCR/ABL p210-T315I mutant (unknown origin) expressed in mouse BA/F3 cells assessed as growth inhibition after 72 hrs by CellTiter-Glo or CCK-8 assay

[2] = tested on: HEL; experiment: Antiproliferative activity against human HEL cells assessed as cell viability after 72 hrs by CellTiter-Glo or CCK-8 assay; format: functional
[3] = target: Tyrosine-protein kinase Lck (Homo sapiens) (UniProt P06239); conditions: BaF3
Description: Inhibition of TEL-LCK (unknown origin) expressed in mouse BA/F3 cells assessed as growth inhibition after 72 hrs by CellTiter-Glo or CCK-8 assay

[4] = tested on: BaF3; conditions: Homo sapiens; remark: listed apart in the source
Description: Inhibition of BCR/ABL p210-F317I mutant (unknown origin) expressed in mouse BA/F3 cells assessed as growth inhibition after 72 hrs by CellTiter-Glo or CCK-8 assay

[5] = Antiproliferative activity against mouse BA/F3 cells assessed as cell viability after 72 hrs by CellTiter-Glo or CCK-8 assay; format: cell-based, BaF3
[6] = Antiproliferative activity against human MEG01 cells assessed as cell viability after 72 hrs by CellTiter-Glo or CCK-8 assay; format: functional; conditions: MEG-01, 72 h
[7] = target: Tyrosine-protein kinase Blk (Homo sapiens) (UniProt P51451); conditions: BaF3
Description: Inhibition of TEL-BLK (unknown origin) expressed in mouse BA/F3 cells assessed as growth inhibition after 72 hrs by CellTiter-Glo or CCK-8 assay

[8] = Antiproliferative activity against human KU812 cells assessed as cell viability after 72 hrs by CellTiter-Glo or CCK-8 assay; format: functional; conditions: KU812, 72 h
[9] = Antiproliferative activity against human MOLM14 cells assessed as cell viability after 72 hrs by CellTiter-Glo or CCK-8 assay; format: functional; conditions: MOLM-14, 72 h
[10] = target: Proto-oncogene tyrosine-protein kinase Src (Homo sapiens, UniProt P12931); conditions: BaF3
Description: Inhibition of TEL-SRC (unknown origin) expressed in mouse BA/F3 cells assessed as growth inhibition after 72 hrs by CellTiter-Glo or CCK-8 assay

[11] = Antiproliferative activity against human U937 cells assessed as cell viability after 72 hrs by CellTiter-Glo or CCK-8 assay; format: functional; conditions: U-937, 72 h
[12] = target: Tyrosine-protein kinase HCK (Homo sapiens) (UniProt P08631); conditions: BaF3
Description: Inhibition of TEL-HCK (unknown origin) expressed in mouse BA/F3 cells assessed as growth inhibition after 72 hrs by CellTiter-Glo or CCK-8 assay

[13] = Antiproliferative activity against […] CHL cells assessed as cell viability after 72 hrs by CellTiter-Glo or CCK-8 assay; format: cell-based, Cricetulus griseus; conditions: chinese hamster
[14] = tested on: MV4-11; experiment: Antiproliferative activity against human MV4-11 cells assessed as cell viability after 72 hrs by CellTiter-Glo or CCK-8 assay; format: functional; conditions: MV4-11, 72 h
[15] = tested on: BaF3; conditions: Homo sapiens; remark: listed apart in the source
Description: Inhibition of BCR/ABL p210-E255K mutant (unknown origin) expressed in mouse BA/F3 cells assessed as growth inhibition after 72 hrs by CellTiter-Glo or CCK-8 assay

[16] = tested on: K562; experiment: Antiproliferative activity against human K562 cells assessed as cell viability after 72 hrs by CellTiter-Glo or CCK-8 assay; format: functional; conditions: K562, 72 h
[17] = target: T1, Discoidin domain-containing receptor 2 (Homo sapiens) (UniProt Q16832); conditions: BaF3
T1 sequence (whole entry): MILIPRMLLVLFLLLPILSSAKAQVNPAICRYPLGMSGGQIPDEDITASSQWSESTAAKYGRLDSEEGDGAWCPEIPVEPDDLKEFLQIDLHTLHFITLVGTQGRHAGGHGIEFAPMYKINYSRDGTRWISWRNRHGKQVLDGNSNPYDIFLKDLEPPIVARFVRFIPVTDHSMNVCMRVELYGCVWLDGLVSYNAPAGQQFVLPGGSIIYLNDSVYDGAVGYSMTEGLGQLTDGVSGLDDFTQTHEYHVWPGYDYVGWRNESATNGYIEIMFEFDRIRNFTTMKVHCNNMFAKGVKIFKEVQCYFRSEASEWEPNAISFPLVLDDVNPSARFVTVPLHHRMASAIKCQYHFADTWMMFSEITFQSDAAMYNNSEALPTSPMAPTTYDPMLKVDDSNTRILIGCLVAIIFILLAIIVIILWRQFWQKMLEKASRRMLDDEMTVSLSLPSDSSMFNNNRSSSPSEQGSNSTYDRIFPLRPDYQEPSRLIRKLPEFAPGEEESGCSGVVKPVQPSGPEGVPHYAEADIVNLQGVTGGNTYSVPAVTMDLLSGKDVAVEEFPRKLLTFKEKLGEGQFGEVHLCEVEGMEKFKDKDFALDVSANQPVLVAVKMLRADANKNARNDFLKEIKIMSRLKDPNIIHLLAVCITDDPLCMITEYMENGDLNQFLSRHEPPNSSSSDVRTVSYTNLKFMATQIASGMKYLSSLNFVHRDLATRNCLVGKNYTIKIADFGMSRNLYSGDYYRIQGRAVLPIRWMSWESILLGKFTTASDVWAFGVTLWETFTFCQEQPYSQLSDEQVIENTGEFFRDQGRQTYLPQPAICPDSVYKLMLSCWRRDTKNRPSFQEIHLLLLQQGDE
Description: Inhibition of TEL-DDR2 (unknown origin) expressed in mouse BA/F3 cells assessed as growth inhibition after 72 hrs by CellTiter-Glo or CCK-8 assay

[18] = target: Epithelial discoidin domain-containing receptor 1 (Homo sapiens, UniProt Q08345); conditions: BaF3
Chain of Epithelial discoidin domain-containing receptor 1 (Q08345 whole entry, the tested form may be a part): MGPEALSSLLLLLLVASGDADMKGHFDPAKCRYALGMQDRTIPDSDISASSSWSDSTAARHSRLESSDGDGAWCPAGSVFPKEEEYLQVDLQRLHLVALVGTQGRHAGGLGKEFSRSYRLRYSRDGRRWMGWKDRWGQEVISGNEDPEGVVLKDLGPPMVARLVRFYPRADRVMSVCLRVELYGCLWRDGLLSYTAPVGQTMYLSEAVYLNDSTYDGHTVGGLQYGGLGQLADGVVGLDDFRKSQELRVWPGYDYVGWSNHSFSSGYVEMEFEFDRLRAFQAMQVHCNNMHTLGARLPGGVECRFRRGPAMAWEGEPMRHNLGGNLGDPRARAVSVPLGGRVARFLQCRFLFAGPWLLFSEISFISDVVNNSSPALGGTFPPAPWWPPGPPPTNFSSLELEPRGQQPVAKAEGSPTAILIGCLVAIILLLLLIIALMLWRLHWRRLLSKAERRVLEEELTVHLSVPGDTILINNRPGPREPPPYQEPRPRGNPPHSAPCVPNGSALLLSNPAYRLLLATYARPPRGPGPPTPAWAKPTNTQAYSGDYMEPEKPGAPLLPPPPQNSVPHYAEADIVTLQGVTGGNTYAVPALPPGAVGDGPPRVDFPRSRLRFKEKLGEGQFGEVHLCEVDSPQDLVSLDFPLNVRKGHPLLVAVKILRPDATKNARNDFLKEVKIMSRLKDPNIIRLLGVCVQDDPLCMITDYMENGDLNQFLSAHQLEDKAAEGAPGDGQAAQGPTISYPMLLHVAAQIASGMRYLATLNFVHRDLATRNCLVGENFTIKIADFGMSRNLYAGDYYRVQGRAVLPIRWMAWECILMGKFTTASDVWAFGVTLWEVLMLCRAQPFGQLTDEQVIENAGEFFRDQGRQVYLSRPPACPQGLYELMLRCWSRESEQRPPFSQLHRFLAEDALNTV
Description: Inhibition of TEL-DDR1 (unknown origin) expressed in mouse BA/F3 cells assessed as growth inhibition after 72 hrs by CellTiter-Glo or CCK-8 assay

Chain of Tyrosine-protein kinase Blk (Homo sapiens) (P51451 2-505 limits assumed): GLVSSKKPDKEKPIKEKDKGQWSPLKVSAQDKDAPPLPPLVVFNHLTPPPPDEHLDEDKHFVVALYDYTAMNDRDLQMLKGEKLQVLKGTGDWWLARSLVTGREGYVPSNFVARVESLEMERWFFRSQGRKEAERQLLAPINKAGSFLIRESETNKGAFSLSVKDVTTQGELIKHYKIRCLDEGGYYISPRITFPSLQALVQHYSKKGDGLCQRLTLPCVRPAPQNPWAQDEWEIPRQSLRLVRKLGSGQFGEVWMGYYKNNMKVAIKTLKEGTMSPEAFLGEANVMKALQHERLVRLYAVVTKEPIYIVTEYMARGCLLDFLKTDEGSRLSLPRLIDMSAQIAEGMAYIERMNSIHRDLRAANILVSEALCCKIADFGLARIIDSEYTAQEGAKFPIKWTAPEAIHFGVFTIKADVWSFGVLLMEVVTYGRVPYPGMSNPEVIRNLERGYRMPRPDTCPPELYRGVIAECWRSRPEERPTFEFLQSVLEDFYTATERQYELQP
Chain of Tyrosine-protein kinase HCK (Homo sapiens) (P08631 2-526 limits assumed): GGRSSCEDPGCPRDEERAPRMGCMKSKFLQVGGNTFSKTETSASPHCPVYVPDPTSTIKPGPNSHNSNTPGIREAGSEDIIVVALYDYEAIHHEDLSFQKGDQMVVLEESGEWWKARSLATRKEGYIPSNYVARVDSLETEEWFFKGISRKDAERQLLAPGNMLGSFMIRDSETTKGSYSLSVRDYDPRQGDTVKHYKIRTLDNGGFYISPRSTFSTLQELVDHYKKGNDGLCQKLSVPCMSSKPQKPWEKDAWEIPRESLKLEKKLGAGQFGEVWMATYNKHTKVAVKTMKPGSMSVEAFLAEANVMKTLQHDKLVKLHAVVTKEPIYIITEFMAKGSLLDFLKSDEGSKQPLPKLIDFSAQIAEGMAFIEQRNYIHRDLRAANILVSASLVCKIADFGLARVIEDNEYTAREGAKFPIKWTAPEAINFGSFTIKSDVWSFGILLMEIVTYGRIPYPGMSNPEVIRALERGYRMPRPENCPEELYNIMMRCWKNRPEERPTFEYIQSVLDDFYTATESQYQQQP
Chain of Proto-oncogene tyrosine-protein kinase Src (P12931 2-536 limits assumed): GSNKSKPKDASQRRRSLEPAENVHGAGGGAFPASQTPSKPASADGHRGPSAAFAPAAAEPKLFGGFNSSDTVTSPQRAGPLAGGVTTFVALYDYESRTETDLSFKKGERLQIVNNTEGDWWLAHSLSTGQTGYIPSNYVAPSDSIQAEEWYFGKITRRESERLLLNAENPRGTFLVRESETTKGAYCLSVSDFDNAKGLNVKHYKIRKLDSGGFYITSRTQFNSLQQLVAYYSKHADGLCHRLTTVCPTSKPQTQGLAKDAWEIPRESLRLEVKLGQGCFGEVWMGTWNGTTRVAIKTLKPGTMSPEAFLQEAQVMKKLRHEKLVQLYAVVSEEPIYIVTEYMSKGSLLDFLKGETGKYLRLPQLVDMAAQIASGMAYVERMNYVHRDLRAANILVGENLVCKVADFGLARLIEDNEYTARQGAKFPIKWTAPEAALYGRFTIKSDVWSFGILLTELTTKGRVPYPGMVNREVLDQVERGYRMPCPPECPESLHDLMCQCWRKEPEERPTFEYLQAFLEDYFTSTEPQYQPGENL
Chain of Tyrosine-protein kinase Lck (Homo sapiens) (P06239 2-509 limits assumed): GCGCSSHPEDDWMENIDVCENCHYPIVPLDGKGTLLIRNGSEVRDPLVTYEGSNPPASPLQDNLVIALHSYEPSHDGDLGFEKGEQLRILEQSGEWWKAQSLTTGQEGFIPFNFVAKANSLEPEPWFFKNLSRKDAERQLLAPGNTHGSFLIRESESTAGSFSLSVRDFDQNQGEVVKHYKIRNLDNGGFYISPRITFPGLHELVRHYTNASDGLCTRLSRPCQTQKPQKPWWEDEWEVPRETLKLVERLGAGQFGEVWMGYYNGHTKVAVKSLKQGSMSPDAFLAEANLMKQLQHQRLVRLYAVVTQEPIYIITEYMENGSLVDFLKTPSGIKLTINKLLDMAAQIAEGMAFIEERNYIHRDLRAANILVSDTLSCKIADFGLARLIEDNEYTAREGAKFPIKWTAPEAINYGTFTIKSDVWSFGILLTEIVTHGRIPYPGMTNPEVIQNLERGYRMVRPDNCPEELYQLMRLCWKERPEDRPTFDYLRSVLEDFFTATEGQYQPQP

GI50 [1] [nM]	GI50 [3] [nM]	GI50 [4] [nM]	GI50 [7] [nM]	GI50 [10] [nM]	GI50 [12] [nM]	GI50 [14] [nM]	GI50 [15] [nM]	GI50 [16] [nM]	GI50 [17] [nM]	GI50 [18] [nM]	SMILES	GI50 [2] [nM]	GI50 at 72 h [5] [nM]	GI50 [6] [nM]	GI50 [8] [nM]	GI50 [9] [nM]	GI50 [11] [nM]	GI50 at 72 h [13] [nM]
> 10000	870	54.6	1300	470	4100	> 10000	21	2	1400	–	Cc1cn(-c2cc(NC(=O)c3ccc(C)c(Nc4nccc(-c5cccnc5)n4)c3)cc(C(F)(F)F)c2)cn1 [NILOTINIB]	3900	2100	16	1	> 10000	> 10000	4200
9940	–	10	5	–	39	3600	17	< 0.3	3000	3000	Cc1nc(Nc2ncc(C(=O)Nc3c(C)cccc3Cl)s2)cc(N2CCN(CCO)CC2)n1 [DASATINIB]	5300	> 10000	< 0.3	< 0.3	2300	> 10000	270
> 10000	–	855	4100	–	9700	> 10000	1930	140	7700	–	Cc1ccc(NC(=O)c2ccc(CN3CCN(C)CC3)cc2)cc1Nc1nccc(-c2cccnc2)n1 [IMATINIB]	5300	6700	240	160	> 10000	> 10000	> 10000
